The values that follow are results of earlier work, collected in US12728103B2, “Pharmaceutical composition comprising mitotane administered orally for treatment of adrenocortical carcinoma and Cushing's syndrome” (priority 2019, dated 2026).

Consider `Clc1ccc(C(c2ccccc2Cl)C(Cl)Cl)cc1` (centres unmarked) [Mitotane, ortho,para'dichloro-diphenyl-dichloroethane], for which the “concentration in fat relative to plasma” value (accumulation in fat) was roughly 200 times. Also, the “product found in the faeces in an unmetabolized form” value (humans, conventional tablet) is given as 60%. For the same compound, under “patients”, the “mitotaemia at which neurological disorders (ataxia, depressive syndrome) occur” value is given as “exceeds 20 mg/L” and the “plasma concentration to be reached to be effective” value is given as “at least 14 mg/L”. Where the note is “patients, average”, the “treatment time to reach the effective plasma concentration” value is reported as 3 months.
